# Assay results published in ChEMBL document CHEMBL6087403 (Bioorg Med Chem Lett, 2025).
# Calls of active or inactive are those of the source. No cut-off for these calls is given here.
# Tests used:
# Alpha glucosidase = Alpha glucosidase (Homo sapiens, UniProt O43451+P10253+P14410+Q2M2H8); test: Inhibition of alpha-glucosidase (unknown origin); type: protein assay
# [1] = Antioxidant activity assessed as DPPH radical scavenging activity incubated for 1 hr by spectrophotometric analysis; type: functional
IC50 (Alpha glucosidase),IC50 [1],Structure (SMILES),Activity [1]
65.1 µM,55.1 µM,COC(=O)C1=C(C)n2nnnc2N(C)C1c1ccccc1.Cl.Cl (configuration not stated),–
89.5 µM,59.8 µM,CC1=C(C(=O)O)C(c2ccccc2)NC(=S)N1 (configuration not stated),–
76.2 µM,69 µM,CC1=C(C(=O)[C@H](C)c2ccccc2)C(c2ccccc2)NC(=S)N1 (some centres not stated),–
41.2 µM,–,CC1=C(C(=O)[C@H](C)c2ccccc2)C(c2ccc(C)cc2)NC(=S)N1 (some centres not stated),inactive
21.5 µM,29.5 µM,CCOC(=O)C1=C(C)NC(SC)N(C)C1c1cccc(O)c1 (configuration not stated),–
44.4 µM,87.3 µM,CCOC(=O)C1=C(C)NC(SC)N(C)C1c1ccc(C)cc1 (configuration not stated),–
35.9 µM,38.8 µM,CCOC(=O)C1=C(C)NC(SC)N(C)C1c1cccc(OC)c1OC (configuration not stated),–
47.3 µM,–,CC1=C(C(=O)[C@@H](C)c2ccccc2)C(c2ccc(C)cc2)NC(=S)N1 (some centres not stated),inactive
24.2 µM,21.4 µM,CCOC(=O)C1=C(C)NC(SC)N(C)C1c1ccccc1 (configuration not stated),–
61.1 µM,67.8 µM,CC1=C(C(=O)[C@@H](C)c2ccccc2)C(c2ccccc2)NC(=S)N1 (some centres not stated),–
12.5 µM,45.3 µM,CC1=C(C(=O)O)C(c2ccccc2Cl)NC(=S)N1 (configuration not stated),–
45.6 µM,49.2 µM,CCOC(=O)C1=C(C)n2nnnc2N(C)C1c1cccc(O)c1.Cl.Cl (configuration not stated),–
71.1 µM,85.1 µM,CCOC(=O)C1=C(C)NC(NN)N(C)C1c1ccc(C)cc1.Cl.Cl (configuration not stated),–
62.7 µM,79.3 µM,CCOC(=O)C1=C(C)NC(NN)N(C)C1c1cccc(O)c1.Cl.Cl (configuration not stated),–
23.3 µM,31.2 µM,CC1=C(C(=O)[C@H](C)c2ccccc2)C(c2ccccc2Cl)NC(=S)N1 (some centres not stated),–
84.2 µM,69.5 µM,COC(=O)C1=C(C)NC(SC)N(C)C1c1ccccc1 (configuration not stated),–
72.4 µM,66 µM,CCOC(=O)C1=C(C)NC(NN)N(C)C1c1ccc([N+](=O)[O-])cc1.Cl.Cl (configuration not stated),–
61.1 µM,68.2 µM,CCOC(=O)C1=C(C)n2nnnc2N(C)C1c1ccc(C)cc1.Cl.Cl (configuration not stated),–
39.4 µM,33.2 µM,CCOC(=O)C1=C(C)n2nnnc2N(C)C1c1ccccc1.Cl.Cl (configuration not stated),–
39.2 µM,90.8 µM,CC1=C(C(=O)O)C(c2ccc(C)cc2)NC(=S)N1 (configuration not stated),–
18.9 µM,29.8 µM,CC1=C(C(=O)[C@@H](C)c2ccccc2)C(c2ccccc2Cl)NC(=S)N1 (some centres not stated),–
31.1 µM,92.1 µM,CCOC(=O)C1=C(C)NC(NN)N(C)C1c1ccccc1.Cl.Cl (configuration not stated),–
33.3 µM,61.2 µM,CCOC(=O)C1=C(C)NC(SC)N(C)C1c1ccc([N+](=O)[O-])cc1 (configuration not stated),–

Structure (SMILES),IC50 (Alpha glucosidase),IC50 [1],Activity [1]
COc1ccc(O)c(C(C)(C)C)c1,–,44.2 µM,–
